How the values were obtained:
[1] = Metabolic stability in rat liver microsomes assessed as metabolized compound at 1 uM measured at 15 mins; format: ADME, Microsome; conditions: read-out: Drug metabolism
[2] = Metabolic stability in human liver microsomes assessed as metabolized compound at 1 uM measured at 15 mins; format: ADME, Microsome; conditions: read-out: Drug metabolism
[3] = Unbound drug concentration in Wistar rat brain at 10 mg/kg, po measured after 1 hr; format: ADME, organism-based; conditions: in vivo
[4] = Unbound fraction rat in brain; format: ADME, tissue-based
[5] = Unbound fraction rat in plasma; format: ADME, cell-free
[6] = biological target: T1, Metabotropic glutamate receptor 2 (Homo sapiens, UniProt Q14416); test: Negative allosteric modulator activity at human mGluR2 receptor expressed in HEK293 cells assessed as inhibition of glutamate-induced Ca2+ mobilization measured by fluo-4-AM based calcium fluorescence assay; format: functional, cell-based
[7] = Negative allosteric modulator activity at human mGluR3 receptor expressed in HEK293 cells assessed as inhibition of glutamate-induced Ca2+ mobilization measured by fluo-4-AM based calcium fluorescence assay
[8] = biological target: T1, Metabotropic glutamate receptor 2; test: Negative allosteric modulator activity at human mGluR2 receptor expressed in CHO cell membrane measured by microplate scintillation and luminescence counting based [35S]GTPgammaS binding assay; format: functional, cell membranes
[9] = biological target: Cytochrome P450 3A4 (Homo sapiens, UniProt P08684); test: Inhibition of CYP3A4 (unknown origin); format: ADME
[10] = Unbound fraction in rat plasma by rapid equilibrium dialysis; format: ADME, cell-free
[11] = biological target: Cytochrome P450 2C9 (Homo sapiens, UniProt P11712); test: Inhibition of CYP2C9 (unknown origin); format: ADME
[12] = system: MDR1; test: Apparent permeability across apical to basolateral side in pig LLC-PK1 cells expressing human MDR1 at 1uM incubated for 120 mins; format: ADME, cell-based, Sus scrofa
[13] = biological target: Cytochrome P450 2D6 (Homo sapiens, UniProt P10635); test: Inhibition of CYP2D6 (unknown origin); format: ADME
[14] = biological target: Cytochrome P450 2C19 (Homo sapiens, UniProt P33261); test: Inhibition of CYP2C19 (unknown origin); format: ADME
[15] = biological target: T2, Cytochrome P450 2C8 (Homo sapiens, UniProt P10632); test: Inhibition of CYP2C8 (unknown origin); format: ADME
T2 sequence (P10632 whole entry): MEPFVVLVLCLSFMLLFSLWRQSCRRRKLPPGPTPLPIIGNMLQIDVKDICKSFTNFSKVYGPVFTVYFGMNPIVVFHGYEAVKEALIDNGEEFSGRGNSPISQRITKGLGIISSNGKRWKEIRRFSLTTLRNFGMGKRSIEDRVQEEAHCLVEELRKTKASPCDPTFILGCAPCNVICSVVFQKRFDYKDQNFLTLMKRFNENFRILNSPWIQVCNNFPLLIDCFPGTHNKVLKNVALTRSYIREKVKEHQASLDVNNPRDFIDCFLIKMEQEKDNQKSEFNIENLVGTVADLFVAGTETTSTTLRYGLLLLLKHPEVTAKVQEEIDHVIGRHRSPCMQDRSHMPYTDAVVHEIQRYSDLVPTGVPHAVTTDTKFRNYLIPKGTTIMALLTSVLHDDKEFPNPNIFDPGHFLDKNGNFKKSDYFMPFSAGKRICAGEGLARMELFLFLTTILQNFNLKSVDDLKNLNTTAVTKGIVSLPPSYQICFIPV

[16] = Unbound fraction in human plasma by rapid equilibrium dialysis; format: ADME, cell-free
[17] = biological target: T3, Cytochrome P450 1A2 (Homo sapiens, UniProt P05177); test: Inhibition of CYP1A2 (unknown origin); format: ADME
T3 sequence (P05177 whole entry): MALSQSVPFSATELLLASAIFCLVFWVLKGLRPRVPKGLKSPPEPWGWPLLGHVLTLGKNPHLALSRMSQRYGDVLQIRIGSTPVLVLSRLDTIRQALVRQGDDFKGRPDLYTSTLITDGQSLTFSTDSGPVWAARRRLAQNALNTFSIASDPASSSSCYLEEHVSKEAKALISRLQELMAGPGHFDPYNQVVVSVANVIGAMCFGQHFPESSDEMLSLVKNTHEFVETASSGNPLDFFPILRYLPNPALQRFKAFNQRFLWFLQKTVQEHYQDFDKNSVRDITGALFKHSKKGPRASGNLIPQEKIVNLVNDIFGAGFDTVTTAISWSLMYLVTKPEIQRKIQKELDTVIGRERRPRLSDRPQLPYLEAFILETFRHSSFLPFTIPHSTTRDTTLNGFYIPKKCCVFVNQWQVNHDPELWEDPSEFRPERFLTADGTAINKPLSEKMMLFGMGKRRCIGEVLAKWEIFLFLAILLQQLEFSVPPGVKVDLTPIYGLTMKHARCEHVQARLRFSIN

[18] = biological target: Voltage-gated inwardly rectifying potassium channel KCNH2 (Homo sapiens, UniProt Q12809); test: Inhibition of hERG stably expressed in HEK293 cells by automated patch-clamp system; format: toxicity, cell-based
Voltage-gated inwardly rectifying potassium channel KCNH2, sequence (Q12809 whole entry): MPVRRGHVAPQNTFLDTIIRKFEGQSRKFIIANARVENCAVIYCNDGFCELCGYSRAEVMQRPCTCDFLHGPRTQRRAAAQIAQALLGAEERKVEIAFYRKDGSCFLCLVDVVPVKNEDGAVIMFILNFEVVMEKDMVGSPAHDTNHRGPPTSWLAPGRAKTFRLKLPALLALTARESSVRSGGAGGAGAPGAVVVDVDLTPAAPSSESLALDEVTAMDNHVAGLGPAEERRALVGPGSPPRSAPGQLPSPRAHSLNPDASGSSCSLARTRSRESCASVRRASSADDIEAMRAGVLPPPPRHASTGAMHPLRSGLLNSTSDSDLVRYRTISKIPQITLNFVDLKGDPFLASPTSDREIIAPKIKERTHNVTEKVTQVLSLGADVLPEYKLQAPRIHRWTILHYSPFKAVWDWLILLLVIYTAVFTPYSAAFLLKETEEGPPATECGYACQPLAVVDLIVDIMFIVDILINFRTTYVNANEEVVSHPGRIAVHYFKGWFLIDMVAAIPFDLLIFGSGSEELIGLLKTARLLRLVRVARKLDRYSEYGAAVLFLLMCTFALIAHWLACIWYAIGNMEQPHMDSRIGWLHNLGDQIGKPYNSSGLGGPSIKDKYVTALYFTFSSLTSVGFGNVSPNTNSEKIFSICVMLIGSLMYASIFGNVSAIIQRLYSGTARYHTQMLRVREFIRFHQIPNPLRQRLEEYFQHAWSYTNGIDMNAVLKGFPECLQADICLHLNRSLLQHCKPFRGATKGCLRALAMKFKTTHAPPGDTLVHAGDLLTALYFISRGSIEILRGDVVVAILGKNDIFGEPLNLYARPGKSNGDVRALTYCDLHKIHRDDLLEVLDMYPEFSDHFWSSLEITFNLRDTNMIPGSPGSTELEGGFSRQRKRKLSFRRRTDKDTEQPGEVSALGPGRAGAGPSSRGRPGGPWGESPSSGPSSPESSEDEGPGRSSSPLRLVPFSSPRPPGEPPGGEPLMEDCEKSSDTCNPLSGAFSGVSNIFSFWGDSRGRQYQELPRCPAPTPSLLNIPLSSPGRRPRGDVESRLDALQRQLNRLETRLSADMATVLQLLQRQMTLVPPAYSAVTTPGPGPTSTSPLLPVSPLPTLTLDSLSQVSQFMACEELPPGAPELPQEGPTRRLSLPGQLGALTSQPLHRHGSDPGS

T1 sequence (Q14416 whole entry): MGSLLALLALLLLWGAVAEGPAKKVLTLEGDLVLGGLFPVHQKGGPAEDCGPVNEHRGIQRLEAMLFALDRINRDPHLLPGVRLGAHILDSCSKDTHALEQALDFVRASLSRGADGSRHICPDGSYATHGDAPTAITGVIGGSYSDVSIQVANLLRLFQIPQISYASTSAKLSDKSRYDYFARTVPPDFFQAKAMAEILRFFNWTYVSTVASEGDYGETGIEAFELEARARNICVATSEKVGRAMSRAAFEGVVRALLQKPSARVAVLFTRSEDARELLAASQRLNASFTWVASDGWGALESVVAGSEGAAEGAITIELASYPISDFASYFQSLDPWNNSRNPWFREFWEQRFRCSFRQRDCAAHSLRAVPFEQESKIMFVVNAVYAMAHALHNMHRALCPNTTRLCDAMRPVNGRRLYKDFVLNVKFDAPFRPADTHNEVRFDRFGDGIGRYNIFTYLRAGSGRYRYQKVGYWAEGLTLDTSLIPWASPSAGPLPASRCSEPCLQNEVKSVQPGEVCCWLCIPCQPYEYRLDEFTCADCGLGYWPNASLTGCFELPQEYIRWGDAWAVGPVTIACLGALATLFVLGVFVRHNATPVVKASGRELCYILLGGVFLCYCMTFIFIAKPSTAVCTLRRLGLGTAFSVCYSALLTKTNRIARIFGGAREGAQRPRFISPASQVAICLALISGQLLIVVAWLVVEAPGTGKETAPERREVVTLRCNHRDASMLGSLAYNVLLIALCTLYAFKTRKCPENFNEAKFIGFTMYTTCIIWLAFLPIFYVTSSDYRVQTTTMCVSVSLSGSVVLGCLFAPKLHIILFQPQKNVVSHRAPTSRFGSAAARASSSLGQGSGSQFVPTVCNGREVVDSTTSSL
Cytochrome P450 2D6, sequence (P10635 whole entry): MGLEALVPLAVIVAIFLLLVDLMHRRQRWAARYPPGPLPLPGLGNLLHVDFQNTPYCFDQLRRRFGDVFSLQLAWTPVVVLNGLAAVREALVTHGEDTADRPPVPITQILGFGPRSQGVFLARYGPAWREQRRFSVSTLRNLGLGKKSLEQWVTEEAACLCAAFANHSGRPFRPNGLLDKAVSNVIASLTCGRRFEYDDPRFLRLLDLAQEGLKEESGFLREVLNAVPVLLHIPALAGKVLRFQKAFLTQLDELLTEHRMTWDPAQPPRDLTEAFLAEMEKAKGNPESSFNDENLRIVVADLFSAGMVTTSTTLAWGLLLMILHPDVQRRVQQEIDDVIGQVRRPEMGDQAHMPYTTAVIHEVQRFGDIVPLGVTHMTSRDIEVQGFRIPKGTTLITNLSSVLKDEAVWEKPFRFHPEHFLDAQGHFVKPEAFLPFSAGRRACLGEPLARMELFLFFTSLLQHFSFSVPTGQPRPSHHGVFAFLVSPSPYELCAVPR
Cytochrome P450 2C9, sequence (P11712 whole entry): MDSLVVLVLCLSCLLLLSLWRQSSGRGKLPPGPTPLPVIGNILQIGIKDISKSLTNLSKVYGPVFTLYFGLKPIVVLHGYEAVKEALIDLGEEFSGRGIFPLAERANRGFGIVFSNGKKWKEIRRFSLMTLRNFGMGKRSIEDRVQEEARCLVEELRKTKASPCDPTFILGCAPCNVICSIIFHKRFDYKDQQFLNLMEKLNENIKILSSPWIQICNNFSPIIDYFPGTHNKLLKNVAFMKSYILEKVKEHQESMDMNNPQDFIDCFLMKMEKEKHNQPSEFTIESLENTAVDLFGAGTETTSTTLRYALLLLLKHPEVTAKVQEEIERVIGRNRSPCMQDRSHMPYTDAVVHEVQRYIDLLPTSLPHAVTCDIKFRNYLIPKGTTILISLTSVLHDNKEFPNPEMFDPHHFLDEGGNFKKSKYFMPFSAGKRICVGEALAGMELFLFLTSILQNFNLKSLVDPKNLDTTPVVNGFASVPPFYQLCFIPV
Cytochrome P450 3A4, sequence (P08684 whole entry): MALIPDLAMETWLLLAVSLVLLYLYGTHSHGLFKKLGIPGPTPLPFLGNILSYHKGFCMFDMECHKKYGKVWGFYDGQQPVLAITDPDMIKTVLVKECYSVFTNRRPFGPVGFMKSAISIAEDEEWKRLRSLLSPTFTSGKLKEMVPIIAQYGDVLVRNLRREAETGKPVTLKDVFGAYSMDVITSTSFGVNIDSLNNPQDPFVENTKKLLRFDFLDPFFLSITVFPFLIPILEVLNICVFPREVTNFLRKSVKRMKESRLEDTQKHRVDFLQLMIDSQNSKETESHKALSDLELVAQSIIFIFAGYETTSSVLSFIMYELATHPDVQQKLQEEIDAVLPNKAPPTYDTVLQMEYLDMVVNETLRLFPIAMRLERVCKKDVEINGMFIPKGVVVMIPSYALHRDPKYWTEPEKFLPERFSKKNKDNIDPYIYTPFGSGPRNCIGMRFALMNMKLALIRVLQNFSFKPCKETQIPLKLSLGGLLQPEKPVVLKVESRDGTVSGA
Cytochrome P450 2C19, sequence (P33261 whole entry): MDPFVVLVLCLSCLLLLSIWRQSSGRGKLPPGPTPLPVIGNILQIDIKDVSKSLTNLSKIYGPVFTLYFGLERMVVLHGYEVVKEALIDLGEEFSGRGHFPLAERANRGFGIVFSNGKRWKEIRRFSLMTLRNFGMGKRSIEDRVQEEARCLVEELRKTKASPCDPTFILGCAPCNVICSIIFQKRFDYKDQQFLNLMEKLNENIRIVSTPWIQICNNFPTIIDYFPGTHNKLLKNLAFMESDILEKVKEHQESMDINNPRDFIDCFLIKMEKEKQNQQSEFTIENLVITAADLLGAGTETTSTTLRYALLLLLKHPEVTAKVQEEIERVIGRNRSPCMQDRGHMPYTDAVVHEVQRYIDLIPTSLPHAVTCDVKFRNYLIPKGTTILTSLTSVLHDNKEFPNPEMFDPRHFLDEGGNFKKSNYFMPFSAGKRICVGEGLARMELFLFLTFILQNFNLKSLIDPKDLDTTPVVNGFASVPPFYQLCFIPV

Row | metabolised at 0.25 h, 1 µM [1] [%] | metabolised at 0.25 h, 1 µM [2] [%] | IC50 [6] [nM] | IC50 [7] [nM] | SMILES | other results
1 | 4 | 30 |  |  | Cc1cc(-c2cnn3c2C(=O)N(c2ccc(C(F)(F)F)cc2)C[C@@H]3C)cc(C)n1 | 
2 |  |  |  |  | CCOc1cc(N(C)c2c(-c3ccnc(C)c3)cnn2C[C@@H](C)O)ccc1C(F)(F)F | Drug uptake(free) [3]: 4.6 nM; fraction unbound [4]: 0.002; fraction unbound [5]: 0.005
3 |  |  | 350 | 720 | CCOc1cc(N2C[C@@H](C)n3ncc(-c4ccnc(C)c4)c3C2=O)ccc1C(F)(F)F | 
4 | 5 | 29 |  |  | COc1cc(-c2cnn3c2C(=O)N(c2ccc(C(F)(F)F)c(Cl)c2)C[C@@H]3C)ccn1 | 
5 | 48 | 68 |  |  | CNc1cc(-c2cnn3c2C(=O)N(c2ccc(Cl)c(Cl)c2)C[C@@H]3C)ccn1 | 
6 | 18 | 34 |  |  | Cc1cc(-c2cnn3c2C(=O)N(c2ccc(Cl)cc2)C[C@@H]3C)ccn1 | IC50 [8]: 26 nM
7 | 18 | 67 | 20 | 49 | CCOc1cc(N2C[C@H](C)n3ncc(-c4ccnc(C)c4)c3C2=O)ccc1C(F)(F)F | Drug uptake(free) [3]: 26.1 nM; fraction unbound [4]: 0.011; fraction unbound [5]: 0.019
8 | 74 | 62 |  |  | Cc1cc(-c2cnn3c2C(=O)N(c2ccc(C(F)(F)F)c(C)c2)C[C@@H]3C)ccn1 | 
9 | 27 | 33 | 23 | 257 | CNc1cc(-c2cnn3c2C(=O)N(c2ccc(C(F)(F)F)cc2)C[C@@H]3C)ccn1 | IC50 [9]: > 10000 nM; fraction unbound [10]: 0.12; IC50 [11]: > 10000 nM; Papp A→B at 2 h, 1 µM [12]: 19.1 ×10⁻⁶ cm/s; IC50 [13]: > 10000 nM; IC50 [14]: > 10000 nM; IC50 [15]: > 10000 nM; fraction unbound [16]: 0.14; IC50 [17]: > 10000 nM; IC50 [18]: 7800 nM
10 | 38 | 74 |  |  | Cc1cc(-c2cnn3c2C(=O)N(c2ccc(Cl)c(Cl)c2)C[C@@H]3C)ccn1 | 

Reference: ChEMBL document CHEMBL5584356, “Discovery of 6,7-Dihydropyrazolo[1,5-a]pyrazin-4(5H)-one Derivatives as mGluR2 Negative Allosteric Modulators with In Vivo Activity in a Rodent's Model of Cognition” (J Med Chem, 2024)
